The values that follow come from US8648076B2, “Cysteine protease inhibitors and their therapeutic applications” (Hybrigenics SA, priority 2005, dated 2014).

Like-named read-outs stand apart in the source and are kept apart here.

Assay type in all cases: biochemical
For assay [1], the target named is T1, Caspase 3 (Homo sapiens, UniProt P42574).
T1 sequence (P42574 29-175 limits assumed): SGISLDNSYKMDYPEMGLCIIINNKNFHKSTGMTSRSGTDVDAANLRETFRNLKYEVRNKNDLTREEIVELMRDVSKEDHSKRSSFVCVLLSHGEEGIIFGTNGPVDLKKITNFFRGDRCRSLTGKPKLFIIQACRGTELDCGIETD
T1 sequence (P42574 176-277 limits assumed): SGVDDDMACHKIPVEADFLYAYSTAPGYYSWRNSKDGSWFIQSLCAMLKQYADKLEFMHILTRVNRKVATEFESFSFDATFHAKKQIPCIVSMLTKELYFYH
Nature of the assay: Caspase 3 activity assay. Here is the method:
Compounds stocks (100 mM) were stored at −20° C. in DMSO. […] Reactions were performed as duplicates in Black LJL 96 well plates (HE microplates; Molecular Devices; 20 μl final reaction volume). The substrate concentration for caspase 3 specificity assay was 500 nM (Ac-DEVD-AMC; Promega). […] The concentrations were determined in order to perform specificity assays under initial velocities at fixed substrate concentration. Compounds were pre-incubated with enzymes for 30 minutes at 25° C. Reactions were initiated by addition of substrate to the plates containing the enzymes (+/−compounds) diluted in assay buffer. Reactions were incubated for 60 minutes at 37° C. Reactions were stopped by adding acetic acid (100 mM final). Readings were performed on a Pherastar Fluorescent Reader (BMG). δ Emission 380 nm; δ Excitation=460 nm. Data (mean values+/− standard deviation) were analyzed as % of control (no compound) and plotted as percentage versus the Log of the compound concentration using GraphPad (Prism). Data were fitted to a sigmoidal model (variable slope).

Assay [2] addresses T2, USP8 (Homo sapiens, UniProt P40818).
T2 sequence (P40818 1-1118): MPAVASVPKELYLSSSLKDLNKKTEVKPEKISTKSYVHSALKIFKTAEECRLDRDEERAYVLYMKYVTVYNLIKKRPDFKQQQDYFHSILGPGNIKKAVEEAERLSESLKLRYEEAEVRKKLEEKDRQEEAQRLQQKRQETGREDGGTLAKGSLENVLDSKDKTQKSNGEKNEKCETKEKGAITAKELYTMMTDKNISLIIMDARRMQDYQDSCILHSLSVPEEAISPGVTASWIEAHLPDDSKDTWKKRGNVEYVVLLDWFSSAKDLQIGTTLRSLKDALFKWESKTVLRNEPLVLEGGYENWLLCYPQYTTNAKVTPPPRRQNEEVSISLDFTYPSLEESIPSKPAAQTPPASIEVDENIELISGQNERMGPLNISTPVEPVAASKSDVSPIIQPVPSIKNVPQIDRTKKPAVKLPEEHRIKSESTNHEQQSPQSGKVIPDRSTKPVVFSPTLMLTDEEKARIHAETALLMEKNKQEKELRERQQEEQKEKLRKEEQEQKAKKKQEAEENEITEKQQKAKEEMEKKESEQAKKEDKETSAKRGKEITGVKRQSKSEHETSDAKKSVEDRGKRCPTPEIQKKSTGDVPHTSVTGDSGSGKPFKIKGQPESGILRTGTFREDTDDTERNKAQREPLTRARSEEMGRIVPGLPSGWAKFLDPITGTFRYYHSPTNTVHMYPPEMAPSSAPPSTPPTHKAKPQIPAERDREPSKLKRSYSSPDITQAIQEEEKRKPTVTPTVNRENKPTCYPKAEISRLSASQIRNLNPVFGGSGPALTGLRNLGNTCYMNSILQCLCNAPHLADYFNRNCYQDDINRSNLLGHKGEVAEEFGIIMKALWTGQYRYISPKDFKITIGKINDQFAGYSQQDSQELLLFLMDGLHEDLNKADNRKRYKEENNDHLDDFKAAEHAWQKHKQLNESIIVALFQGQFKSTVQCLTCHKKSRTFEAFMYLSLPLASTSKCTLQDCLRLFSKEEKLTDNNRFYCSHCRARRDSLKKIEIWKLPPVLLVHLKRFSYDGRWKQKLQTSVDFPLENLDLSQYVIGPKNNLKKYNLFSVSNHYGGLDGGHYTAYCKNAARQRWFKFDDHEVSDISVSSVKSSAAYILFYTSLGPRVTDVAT
The assay can be described thus: USP8 activity assay. Particulars: 400 nM Ub-AMC, pH8.8, 30 min pre-incubation at 25° C., 60 min at 37° C.; sigmoidal fit; AF: Autofluorescent; read-out: USP 8 (inhibition of cysteine protease activity).

Assay [3] concerns the target T3, USP7 (Homo sapiens, UniProt Q93009).
T3 construct: His tag (from pFastBac-HT vector) (N); made in house; host or cells: insect cells (Sf9 or High Five), baculovirus
The assay can be described thus: USP7 activity assay.

Assay [4] addresses T4, Uch-L3 (Homo sapiens, UniProt P15374).
T4 sequence (P15374 1-230): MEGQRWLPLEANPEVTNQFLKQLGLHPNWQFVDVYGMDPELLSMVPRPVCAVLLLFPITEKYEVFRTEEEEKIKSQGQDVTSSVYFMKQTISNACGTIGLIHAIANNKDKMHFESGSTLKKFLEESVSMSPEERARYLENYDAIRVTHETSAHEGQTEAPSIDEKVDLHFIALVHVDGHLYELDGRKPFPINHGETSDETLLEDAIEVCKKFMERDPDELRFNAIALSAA
The assay can be described thus: UCH-L3 activity assay. Particulars: 400 nM Ub-AMC, 13 pM enzyme, 30 min pre-incubation at 25° C., 60 min at 37° C.; sigmoidal fit; AF: Autofluorescent; read-out: Uch-L3 (inhibition of cysteine protease activity). Here is the method: Bovine Serum Albumin 0.05 mg·ml^−1 pH7.6). Compounds stocks (100 mM) were stored at −20° C. in DMSO. […] Reactions were performed as duplicates in Black LJL 96 well plates (HE microplates; Molecular Devices; 20 μl final reaction volume). The substrate concentration for Uch-L3 was 400 nM Ub-AMC (Boston Biochem). The concentration of the enzyme (Uch-L3) in specificity assays was 13 pM. The concentrations were determined in order to perform specificity assays under initial velocities at fixed substrate concentration. Compounds were pre-incubated with enzymes for 30 minutes at 25° C. Reactions were initiated by addition of substrate to the plates containing the enzymes (+/−compounds) diluted in assay buffer. Reactions were incubated for 60 minutes at 37° C. Reactions were stopped by adding acetic acid (100 mM final). Readings were performed on a Pherastar Fluorescent Reader (BMG). δ Emission 380 nm; δ Excitation=460 nm. Data (mean values+/− standard deviation) were analyzed as % of control (no compound) and plotted as percentage versus the Log of the compound concentration using GraphPad (Prism). Data were fitted to a sigmoidal model (variable slope).

Setting [5] is: 500 nM Ac-DEVD-AMC, 3.2 nM enzyme, 30 min pre-incubation at 25° C., 60 min at 37° C., sigmoidal fit, AF: Autofluorescent, read-out: Casp3 (inhibition of cysteine protease activity).
Setting [6] is: 400 nM Ub-AMC, 152 pM enzyme, 30 min pre-incubation at 25° C., 60 min at 37° C., sigmoidal fit, read-out: USP 7 (inhibition of cysteine protease activity).

T3 sequence (Q93009 whole entry): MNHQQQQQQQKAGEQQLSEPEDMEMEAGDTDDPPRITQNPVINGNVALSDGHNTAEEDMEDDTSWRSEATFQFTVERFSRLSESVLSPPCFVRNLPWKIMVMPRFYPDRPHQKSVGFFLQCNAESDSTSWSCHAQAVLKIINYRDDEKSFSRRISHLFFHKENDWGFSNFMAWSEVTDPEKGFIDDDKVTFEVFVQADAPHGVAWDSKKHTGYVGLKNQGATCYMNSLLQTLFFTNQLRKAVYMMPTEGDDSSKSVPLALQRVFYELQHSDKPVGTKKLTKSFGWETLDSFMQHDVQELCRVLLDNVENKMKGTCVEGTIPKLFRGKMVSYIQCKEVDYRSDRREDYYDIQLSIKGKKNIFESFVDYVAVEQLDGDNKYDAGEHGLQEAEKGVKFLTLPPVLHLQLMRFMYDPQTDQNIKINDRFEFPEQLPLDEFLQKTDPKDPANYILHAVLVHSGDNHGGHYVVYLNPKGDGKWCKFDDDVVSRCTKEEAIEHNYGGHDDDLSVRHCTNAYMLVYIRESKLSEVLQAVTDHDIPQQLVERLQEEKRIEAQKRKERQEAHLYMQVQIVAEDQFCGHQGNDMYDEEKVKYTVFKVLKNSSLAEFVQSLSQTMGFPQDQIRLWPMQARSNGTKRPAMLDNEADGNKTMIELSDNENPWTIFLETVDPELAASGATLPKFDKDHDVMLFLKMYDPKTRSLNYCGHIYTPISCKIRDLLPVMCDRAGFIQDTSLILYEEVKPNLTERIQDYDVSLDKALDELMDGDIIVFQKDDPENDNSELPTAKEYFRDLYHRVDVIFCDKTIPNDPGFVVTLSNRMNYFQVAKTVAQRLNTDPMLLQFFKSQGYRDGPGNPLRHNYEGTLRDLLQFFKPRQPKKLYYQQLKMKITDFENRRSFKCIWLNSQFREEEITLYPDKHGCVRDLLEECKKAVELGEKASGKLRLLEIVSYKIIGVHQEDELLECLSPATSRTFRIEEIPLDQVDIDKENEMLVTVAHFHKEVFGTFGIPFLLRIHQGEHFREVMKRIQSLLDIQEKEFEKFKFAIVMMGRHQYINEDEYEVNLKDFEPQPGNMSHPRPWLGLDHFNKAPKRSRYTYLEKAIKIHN

With `N#Cc1nc2c(nc1C#N)-c1ccc(Cl)cc1C2=O` [Example 17g, 7-Chloro-9-oxo-9H-indeno[1,2-b]pyrazine-2,3-dicarbonitrile], the IC50 stood at 290 nM in assay [1] (setting [5]), 96 nM in assay [2], 530 nM in assay [3] (setting [6]) and 70 nM in assay [4].

Turning to `N#Cc1nc2c(nc1C(N)=O)-c1ccccc1/C2=N\OCC(=O)O` [Example 38, (3-carbamoyl-2-cyano-indeno[1,2-b]pyrazin-9-ylideneaminooxy)-acetic acid], the IC50 was found to be 3940 nM in assay [1], 272 nM in assay [2], 4030 nM in assay [3] and 758 nM in assay [4].

On to `COCCON=C1c2ccccc2-c2nc(C(N)=O)c(C#N)nc21` [Example 34c, 2-Cyano-9-(2-methoxy-ethoxyimino)-9H-indeno[1,2-b]pyrazine-3-carboxylic acid amide], for which the IC50 turned out to be 1220 nM in assay [1] (setting [5]), 71 nM in assay [2], 2880 nM in assay [3] and 109 nM in assay [4].

On to `Cc1c(F)ccc2c1C(=O)c1nc(C#N)c(C#N)nc1-2` [Example 30, 7-Fluoro-8-methyl-9-oxo-9H-indeno[1,2-b]pyrazine-2,3-dicarbonitrile], for which the IC50 is 1070 nM in assay [1] (setting [5]), 316 nM in assay [2], 2220 nM in assay [3] (setting [6]) and 339 nM in assay [4].

For `CCSc1nc2c(nc1C#N)C(=O)c1ccccc1-2` [Example 23, 3-ethylsulfanyl-9-oxo-9H-indeno[1,2-b]pyrazine-2-carbonitrile], the IC50 is over 100000 nM in assay [1] (setting [5]), 46000 nM in assay [2], over 100000 nM in assay [3] (setting [6]) and 86000 nM in assay [4].

For `C=CCON=C1c2ccccc2-c2nc(C(N)=O)c(C#N)nc21` [Example 34a, 9-Allyloxyimino-2-cyano-9H-indeno[1,2-b]pyrazine-3-carboxylic acid amide], the IC50 came out at 245 nM in assay [1] (setting [5]), 58 nM in assay [2], 500 nM in assay [3] and 32 nM in assay [4].

As to `N#Cc1nc2c(nc1N1CCC(F)(F)CC1)-c1ccccc1C2=O` [Example 8, 3-(4,4-difluoro-piperidin-1-yl)-9-oxo-9H-indeno[1,2-b]-pyrazine-2-carbonitrile], the IC50 in assay [1] (setting [5]), in assay [2], in assay [3] (setting [6]) and in assay [4] was over 100000 nM throughout.

Regarding `N#Cc1nc2c(nc1C#N)-c1ccccc1C2=NOCc1ccccc1` (mixture of isomers) [Example 13C, 9-Benzyloxyimino-9H-indeno[1,2-b]pyrazine-2,3-dicarbonitrile], the IC50 was over 100000 nM in assay [1] (setting [5]), 850 nM in assay [2], over 100000 nM in assay [3] (setting [6]) and over 100000 nM in assay [4].

With `N#Cc1nc2c(nc1O)-c1ccccc1C2=O` [Example 6, 3-hydroxy-9-oxo-9H-indeno[1,2-b]pyrazine-2-carbonitrile], the IC50 stood at 9300 nM in assay [1] (setting [5]), 8400 nM in assay [2], 21800 nM in assay [3] (setting [6]) and 1100 nM in assay [4].

Turning to `N#Cc1nc2c(nc1C(N)=O)-c1ccccc1C2=O` [Example 36, 2-cyano-9-oxo-9H-indeno[1,2-b]pyrazine-3-carboxylic acid amide], the IC50 in assay [1] (setting [5]) amounted to 402 nM; in assay [2] it was 205 nM; in assay [3], 1270 nM; in assay [4], 178 nM.

In the case of `N#Cc1nc2c(nc1C#N)-c1ccc(O)cc1C2=O` [Example 17j, 7-Hydroxy-9-oxo-9H-indeno[1,2-b]pyrazine-2,3-dicarbonitrile], the IC50 was 47000 nM in assay [1] (setting [5]), over 100000 nM in assay [2], 66000 nM in assay [3] (setting [6]) and 8000 nM in assay [4].

On to `N#Cc1nc2sc3ccccc3c2nc1C#N` [Example 19, benzo[4,5]thieno[2,3-b]pyrazine-2,3-dicarbonitrile], for which the IC50 in assay [1] (setting [5]), in assay [2], in assay [3] (setting [6]) and in assay [4] was over 100000 nM in each case.
